Measurements taken from BindingDB's records for doi:10.1021/jm021014d (University of Bari Aldo Moro, 2003).
Structures can show the parent of a compound that is named as a salt.

Assay: Inhibition of [3H]pentazocine binding to Sigma receptor type 1 in guinea pig brain membrane without cerebellum

| SMILES | Ki [nM] |
| --- | --- |
| C(/C=C/c1ccc2c(c1)OCO2)=C\CN1CCCCC1 [1-(5-Benzo[1,3]dioxol-5-yl-penta-2,4-dienyl)-piperidine] | 0.86 |
| CC1CCN([C@@H](C)COc2ccc(Cl)cc2)CC1 [1-[2-(4-Chloro-phenoxy)-1-methyl-ethyl]-4-methyl-piperidine; hydrochloride] | 0.34 |
| CC1CCN([C@H](C)COc2ccc(Cl)cc2)CC1 [1-[2-(4-Chloro-phenoxy)-1-methyl-ethyl]-4-methyl-piperidine; hydrochloride] | 1.18 |
| CC1CCN(C[C@@H](C)COc2ccc(Cl)cc2)CC1 [1-[3-(4-Chloro-phenoxy)-2-methyl-propyl]-4-methyl-piperidine; hydrochloride] | 1.7 |
| CC1CCN(C[C@H](C)COc2ccc(Cl)cc2)CC1 [1-[3-(4-Chloro-phenoxy)-2-methyl-propyl]-4-methyl-piperidine; hydrochloride] | 1.09 |
